According to article PMC7167990, “Therapeutic Effects of Atranorin towards the Proliferation of Babesia and Theileria Parasites” (Pathogens, 2020):
Several values for one entry are separate records, joined by “and”; a condition that tells them apart may be missing. Equal values may be shown once.

Legend:
Plasmodium species = test system: Plasmodium species; design: method as in earlier work; details: ATR combined with quinine; cited from earlier work
hepatitis C virus (HCV) = test system: hepatitis C virus (HCV); design: method as in PMID 25793970; details: antiviral activity against hepatitis C virus (HCV); cited from earlier work
MDBK cells = test: Cytotoxicity assay (CCK-8 cell viability); format: cell-based, bovine; details: for EC50: MDBK cells, 24 h, CCK-8
Method: Cultures of human foreskin fibroblast (HFF; HFF-1 ATCC® SCRC-1041™), Madin–Darby bovine kidney (MDBK; ECACC) and mouse embryonic fibroblast (NIH/3T3; ATCC® CRL-1658™) cells were retrieved from −80 °C stock and cultured continuously at 37 °C under atmosphere 5% CO2 in our laboratory. The NIH/3T3 and HFFs cells were maintained in Dulbecco Modified Eagle’s Medium (DMEM; Gibco, Grand Island, NY, USA), while MDBK cell line grown in Minimum Essential Medium Eagle (MEM; Gibco). Each medium was treated with 0.5% penicillin/streptomycin (Gibco), 10% inactivated fetal bovine serum and 2 mM glutamine. Every 72 to 96 h, the medium was replaced, and once 80% confluence was reached, the cell collection was performed by sub-culture protocol. To confirm the absence of mycoplasma contamination, 4,6-diamidino-2-phenylindole dihydrochloride stain (Sigma-Aldrich) was used.
The cell viability test was conducted in a 96-well plate as described elsewhere. Briefly, an aliquot of (100 µL) cells was implanted at a concentration of 5 × 10^4 cells/mL in DMEM or MEM with fetal bovine serum and incubated overnight under atmosphere 5% CO2 at 37 °C for attachment. Using two-fold dilutions, aliquots (10 µL) of drugs were added in triplicate per well to attain final concentrations of 50 to 1000 µM and further incubated for 24 h. The positive control wells containing cells mixed with the medium in 0.4% DMSO, whereas the negative control wells containing culture medium only. After a 24-h incubation, Cell Counting Kits-8 (CCK-8, 10 µL) was added to each well and then plate incubation was conducted for an additional 3 h and a microplate reader was used to assess the absorbance at 450 nm.

B. divergens = test: Parasite viability test in vitro (regrowth after drug withdrawal, microscopy); format: cell-based; design: key: a positive (+) indicates parasites regrowth; a negative (–) shows the parasites total clearance after drug pressure withdrawal using microscopy assay; details: 4 days treatment, then drug-free culture
Method: (§1) The viability studies of ATR-treated parasites were monitored via microscopy as reported elsewhere. In a 96-well microtiter plate, an aliquot of 1% parasitemia (10 µL) of iRBCs was cultivated with 90 µL of respective media containing various concentrations of ATR and DA for 4 successive days with changing media daily. […] On the fifth day, a mixture of iRBCs (3 µL) from each well and fresh equine or bovine RBCs (7 µL) was transferred to another plate, cultured in a medium free from drug and then left for an additional six days. The total parasite clearance was recorded as negative, while the relapse of parasites was recorded as positive.

B. bovis = test: as above; format: cell-based; design: key: a positive (+) indicates parasites regrowth; a negative (–) shows the parasites total clearance after drug pressure withdrawal using microscopy assay; details: 4 days treatment, then drug-free culture
Method: as §1

B. caballi = test: as above; format: cell-based; design: key: a positive (+) indicates parasites regrowth; a negative (–) shows the parasites total clearance after drug pressure withdrawal using microscopy assay; details: 4 days treatment, then drug-free culture
Method: as §1

T. equi = test: as above; format: cell-based; design: key: a positive (+) indicates parasites regrowth; a negative (–) shows the parasites total clearance after drug pressure withdrawal using microscopy assay; details: 4 days treatment, then drug-free culture
Method: as §1

B. bigemina = test: as above; format: cell-based; design: key: a positive (+) indicates parasites regrowth; a negative (–) shows the parasites total clearance after drug pressure withdrawal using microscopy assay; details: 4 days treatment, then drug-free culture
Method: as §1

[1] = test system: bovine RBCs (B. divergens); test: Impact of ATR pretreatment of bovine RBCs on later parasite proliferation; format: cell-based; details: 400 µM ATR for 3 and 6 h, then B. divergens subculture
Method: (§2) Prior to parasite subculture, a concentration of 400 µM of ATR was mixed with fresh bovine and equine RBCs and incubated at a humidified incubator for 3 and 6 h. Afterward, the pretreated-RBCs were mixed with B. divergens and T. equi infected RBCs (iRBCs) after washing thrice with PBS to achieve 1% parasitemia. Thereafter, using a 24-well plate, an aliquot of iRBCs (100 μL) was mixed with culture media (900 μL); the control RBCs were left untreated. To monitor the parasitemia and any side effects due to the pretreatment, Giemsa-stained smears were prepared every 24 h for four days.

equine RBCs (T. equi) = test: Impact of ATR pretreatment of equine RBCs on later parasite proliferation; format: cell-based; details: 400 µM ATR for 3 and 6 h, then T. equi subculture
Method: as §2

[2] = test system: LLC/MK2 monkey kidney epithelial cells; design: method as in PMID 21487780; details: cited from earlier work

COC(=O)c1c(C)cc(OC(=O)c2c(C)cc(O)c(C=O)c2O)c(C)c1O [ATR, Atranorin]
combined treatment efficacy with quinine (Plasmodium species): slight antagonistic efficacy
IC50 (hepatitis C virus (HCV)): 22.3 ± 8 µM
EC50 (MDBK cells; Bos taurus): 775 ± 16 µM
Selective Index MDBK (MDBK cells; EC50 MDBK / IC50 B. bigemina): 12.0
Selective Index MDBK (MDBK cells; EC50 MDBK / IC50 B. bovis): 7.9
Selective Index MDBK (MDBK cells; EC50 MDBK / IC50 B. caballi): 16.6
Selective Index MDBK (MDBK cells; EC50 MDBK / IC50 B. divergens): 17.1
Selective Index MDBK (MDBK cells; EC50 MDBK / IC50 T. equi): 10.6 and 10.9
Viability (B. divergens; A1 = 0.25× IC50, 11.3 µM): +
Viability (B. divergens; A2 = 0.5× IC50, 22.6 µM): +
Viability (B. divergens; A3 = 1× IC50, 45.2 µM): +
Viability (B. divergens; A4 = 2× IC50, 90.4 µM): +
Viability (B. divergens; A5 = 4× IC50, 180.8 µM): cleared and did not revive and –
Viability (B. divergens; A6 = 6× IC50, 271.2 µM): –
Viability (B. bovis; A1 = 0.25× IC50, 24.6 µM): +
Viability (B. bovis; A2 = 0.5× IC50, 49.2 µM): +
Viability (B. bovis; A3 = 1× IC50, 98.4 µM): +
Viability (B. bovis; A4 = 2× IC50, 196.8 µM): completely suppressed and did not revive and –
Viability (B. bovis; A5 = 4× IC50, 393.6 µM): –
Viability (B. bovis; A6 = 6× IC50, 590.4 µM): –
Viability (B. caballi; A1 = 0.25× IC50, 11.65 µM): +
Viability (B. caballi; A2 = 0.5× IC50, 23.3 µM): +
Viability (B. caballi; A3 = 1× IC50, 46.6 µM): +
Viability (B. caballi; A4 = 2× IC50, 93.2 µM): completely suppressed and did not revive and –
Viability (B. caballi; A5 = 4× IC50, 186.4 µM): –
Viability (B. caballi; A6 = 6× IC50, 279.6 µM): –
Viability (T. equi; A1 = 0.25× IC50, 17.8 µM): +
Viability (T. equi; A2 = 0.5× IC50, 35.6 µM): +
Viability (T. equi; A3 = 1× IC50, 71.3 µM): +
Viability (T. equi; A4 = 2× IC50, 142.6 µM): +
Viability (T. equi; A5 = 4× IC50, 285.2 µM): +
Viability (T. equi; A6 = 6× IC50, 427.8 µM): suppressed and –
Viability (B. bigemina; A1 = 0.25× IC50, 16.1 µM): +
Viability (B. bigemina; A2 = 0.5× IC50, 32.25 µM): +
Viability (B. bigemina; A3 = 1× IC50, 64.5 µM): +
Viability (B. bigemina; A4 = 2× IC50, 129 µM): completely suppressed and did not revive and –
Viability (B. bigemina; A5 = 4× IC50, 258 µM): –
Viability (B. bigemina; A6 = 6× IC50, 387 µM): –
parasite proliferation in ATR-pretreated RBCs versus untreated RBCs [1]: did not show a significant difference
parasite proliferation in ATR-pretreated RBCs versus untreated RBCs (equine RBCs (T. equi)): did not show a significant difference
cytotoxic action [2]: mild cytotoxic action

CC(=O)NCC(=O)O.CC(=O)NCC(=O)O.N=C(N)c1ccc(N=NNc2ccc(C(=N)N)cc2)cc1 [DA, diminazene aceturate]
Selective Index MDBK (MDBK cells; EC50 MDBK / IC50 B. bigemina): ˃147.1
Selective Index MDBK (MDBK cells; EC50 MDBK / IC50 B. bovis): ˃285.7
Selective Index MDBK (MDBK cells; EC50 MDBK / IC50 B. caballi): ˃5000
Selective Index MDBK (MDBK cells; EC50 MDBK / IC50 B. divergens): ˃232.5
Selective Index MDBK (MDBK cells; EC50 MDBK / IC50 T. equi): ˃140.8
EC50 (MDBK cells): > 100 µM

O=C1C(O)=C([C@H]2CC[C@H](c3ccc(Cl)cc3)CC2)C(=O)c2ccccc21 [AV, atovaquone]
EC50 (MDBK cells; Bos taurus): > 100 µM
Selective Index MDBK (MDBK cells; EC50 MDBK / IC50 B. bigemina): ˃142.7
Selective Index MDBK (MDBK cells; EC50 MDBK / IC50 B. bovis): ˃2564
Selective Index MDBK (MDBK cells; EC50 MDBK / IC50 B. caballi): ˃980.4
Selective Index MDBK (MDBK cells; EC50 MDBK / IC50 B. divergens): ˃2631
Selective Index MDBK (MDBK cells; EC50 MDBK / IC50 T. equi): ˃1052
